Measurements as given in patent US9352015B2, “Antimicrobial peptides” (priority 2009, dated 2016).
Converted amounts (≈) assume the structure as drawn. Read-outs that look alike come from different tables or passages of the source.

Tested on: Acinetobacter baumannii
Format: cell-based
Method in brief: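 Microtiter broth dilution in triplicate, mainly LB no-salt medium (MH or BHI in some cases), peptides serially diluted, final inoculum 5×10^5 CFU/ml (1×10^5 CFU/ml in MH variant); 24 h at 37° C. MIC is the lowest peptide concentration inhibiting growth, given in micromolar against clinical isolates.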

Structure (SMILES): CC[C@@H](C)[C@@H](NC(=O)[C@@H](C)NC(=O)[C@@H](CCCCN)NC(=O)[C@@H](CC(C)C)NC(=O)[C@@H](C)NC(=O)[C@H](NC(=O)[C@@H](Cc1c[nH]cn1)NC(=O)[C@@H](CC(C)C)NC(=O)[C@H](NC(=O)[C@H](NC(=O)[C@@H](CCCCN)NC(=O)[C@@H](CCCCN)NC(=O)[C@@H](C)NC(=O)[C@@H](CO)NC(=O)[C@@H](CCCCN)NC(=O)[C@@H](Cc1ccccc1)NC(=O)[C@H](NC(=O)[C@@H](CCCCN)NC(=O)[C@@H](CC(C)C)NC(=O)[C@@H](Cc1ccccc1)NC(=O)[C@@H](CO)NC(=O)[C@@H](CCCCN)NC(=O)[C@@H](Cc1c[nH]c2ccccc12)NC(=O)[C@@H](CCCCN)NC(C)=O)[C@H](C)O)[C@H](C)O)C(C)C)[C@H](C)O)C(=O)N[C@H](CO)C(=O)N[C@H](CO)C(N)=O [Peptide D1, Ac-KWKSFLKTFKSAKKTVLHTALKAISS-amide]
- MIC (A. baumannii strain 1 ATCC 17978, Mueller Hinton medium, 24 hours at 37° C.): 0.8 µM (≈ 2.39 µg/mL)
- MIC (A. baumannii strain 2 ATCC 19606, Mueller Hinton medium, 24 hours at 37° C.): 1.5 µM (≈ 4.49 µg/mL)
- MIC (A. baumannii strain 3, 649 Blood, Mueller Hinton medium, 24 hours at 37° C.): 0.8 µM (≈ 2.39 µg/mL)
- MIC (A. baumannii strain 4, 689 Groin, Mueller Hinton medium, 24 hours at 37° C.): 0.8 µM (≈ 2.39 µg/mL)
- MIC (A. baumannii strain 5, 759 Gluteus, Mueller Hinton medium, 24 hours at 37° C.): 1.5 µM (≈ 4.49 µg/mL)
- MIC (A. baumannii strain 6, 821 Urine, Mueller Hinton medium, 24 hours at 37° C.): 1.5 µM (≈ 4.49 µg/mL)
- MIC (A. baumannii strain 7, 884 Axilla, Mueller Hinton medium, 24 hours at 37° C.): 1.5 µM (≈ 4.49 µg/mL)
- MIC (A. baumannii strain 8, 899 Perineum, Mueller Hinton medium, 24 hours at 37° C.): 1.5 µM (≈ 4.49 µg/mL)
- MIC (A. baumannii strain 9, 964 Throat, Mueller Hinton medium, 24 hours at 37° C.): 1.5 µM (≈ 4.49 µg/mL)
- MIC (A. baumannii strain 10, 985 Pleural fluid, Mueller Hinton medium, 24 hours at 37° C.): 0.8 µM (≈ 2.39 µg/mL)
- MIC (A. baumannii strain 11, 1012 Sputum, Mueller Hinton medium, 24 hours at 37° C.): 0.8 µM (≈ 2.39 µg/mL)
- Antimicrobial Activity MIC against A. baumannii (geometric mean (GM-MIC), 11 clinical isolates): 1.1 µM
- MIC GM (geometric mean) (geometric mean of the MIC values from 11 different isolates of Acinetobacter baumannii, Mueller Hinton medium): 1.1 µM (≈ 3.29 µg/mL)
- Acinetobacter baumannii MICGM (geometric mean, 11 different isolates, 24 hours at 37° C.): 1.1 µM
